{"source": "patent US20230391768A2", "about": "“IMIDAZOPYRIDINE DERIVATIVES AND AZA-IMIDAZOPYRIDINE DERIVATIVES AS JANUS KINASE 2 INHIBITORS AND USES THEREOF” (Dana-Farber Cancer Institute, Inc., priority 2018, published 2023)", "data": [{"biological_target": "JAK2 (Homo sapiens (Human), UniProt O60674)", "sequence (O60674 whole entry)": "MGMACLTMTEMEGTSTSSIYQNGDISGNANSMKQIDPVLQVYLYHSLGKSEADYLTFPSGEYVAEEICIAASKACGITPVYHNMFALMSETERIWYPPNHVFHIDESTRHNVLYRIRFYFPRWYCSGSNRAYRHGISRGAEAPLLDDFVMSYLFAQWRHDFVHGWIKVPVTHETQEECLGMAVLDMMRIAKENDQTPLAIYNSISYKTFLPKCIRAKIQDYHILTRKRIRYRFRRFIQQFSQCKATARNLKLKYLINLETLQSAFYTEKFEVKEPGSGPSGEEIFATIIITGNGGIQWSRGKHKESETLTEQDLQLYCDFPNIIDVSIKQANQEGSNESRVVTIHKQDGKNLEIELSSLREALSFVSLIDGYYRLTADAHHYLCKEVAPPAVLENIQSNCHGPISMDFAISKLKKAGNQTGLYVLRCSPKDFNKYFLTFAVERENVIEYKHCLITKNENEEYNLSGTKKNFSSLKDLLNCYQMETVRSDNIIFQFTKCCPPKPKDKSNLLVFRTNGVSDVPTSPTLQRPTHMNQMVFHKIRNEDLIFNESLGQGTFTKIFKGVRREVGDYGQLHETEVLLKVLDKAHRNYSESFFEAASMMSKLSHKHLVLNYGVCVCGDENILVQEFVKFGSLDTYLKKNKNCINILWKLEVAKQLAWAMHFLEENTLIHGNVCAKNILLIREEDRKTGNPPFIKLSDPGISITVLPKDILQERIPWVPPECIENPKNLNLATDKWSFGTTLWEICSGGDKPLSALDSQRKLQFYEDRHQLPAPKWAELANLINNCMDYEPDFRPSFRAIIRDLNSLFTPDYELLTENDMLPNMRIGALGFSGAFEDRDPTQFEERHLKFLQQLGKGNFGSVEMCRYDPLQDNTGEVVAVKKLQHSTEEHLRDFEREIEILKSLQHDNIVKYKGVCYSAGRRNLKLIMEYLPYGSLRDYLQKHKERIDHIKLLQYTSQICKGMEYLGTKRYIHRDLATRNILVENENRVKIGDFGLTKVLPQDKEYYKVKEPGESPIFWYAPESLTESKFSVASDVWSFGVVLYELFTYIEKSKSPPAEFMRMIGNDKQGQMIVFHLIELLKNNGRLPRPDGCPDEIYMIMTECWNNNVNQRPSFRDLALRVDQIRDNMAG", "assay": "JAK2 Z-Lyte biochemical assay", "conditions": "commercial JAK2 Z-Lyte assay from Invitrogen", "method": "The JAK2 Z-Lyte biochemical assay was performed according to manufacturer's instructions (Life Technologies).", "units": {"IC50": "nM"}, "values": [{"smiles": "CC(=O)N1CCN(Cc2cc(NC(=O)c3ccc(C)c(-c4ccc5nc(NC(=O)C6CC6)cn5n4)c3)cc(C(F)(F)F)c2)CC1", "note": "[Compound I-10, N-(3-((4-acetylpiperazin-1-yl)methyl)-5-(trifluoromethyl)phenyl)-3-(2-(cyclopropanecarboxamido)imidazo[1,2-b]pyridazin-6-yl)-4-methylbenzamide]", "IC50": 1350}, {"smiles": "CCN1CCN(Cc2cc(C(=O)Nc3ccc(C)c(-c4ccc5nc(NC(=O)C6CC6)cn5c4)c3)cc(C(F)(F)F)c2)CC1", "note": "[Compound I-8, N-(3-(2-(cyclopropanecarboxamido)imidazo[1,2-a]pyridin-6-yl)-4-methylphenyl)-3-((4-ethylpiperazin-1-yl)methyl)-5-(trifluoromethyl)benzamide]", "IC50": 824}, {"smiles": "CCN1CCN(Cc2cc(NC(=O)c3ccc(C(F)(F)F)c(-c4ccc5nc(NC(=O)C6CC6)cn5n4)c3)cc(C(F)(F)F)c2)CC1", "note": "[Compound I-22, 3-(2-(cyclopropanecarboxamido)imidazo[1,2-b]pyridazin-6-yl)-N-(3-((4-ethylpiperazin-1-yl)methyl)-5-(trifluoromethyl)phenyl)-4-(trifluoromethyl)benzamide]", "IC50": 1900}, {"smiles": "CCS(=O)(=O)N1CCN(Cc2cc(NC(=O)c3ccc(C)c(-c4ccc5nc(NC(=O)C6CC6)cn5n4)c3)cc(C(F)(F)F)c2)CC1", "note": "[Compound I-11, 3-(2-(cyclopropanecarboxamido)imidazo[1,2-b]pyridazin-6-yl)-N-(3-((4-(ethylsulfonyl)piperazin-1-yl)methyl)-5-(trifluoromethyl)phenyl)-4-methylbenzamide]", "IC50": 2620}, {"smiles": "CCN1CCN(Cc2cc(NC(=O)c3ccc(C)c(-c4ccc5nc(N)cn5n4)c3)cc(C(F)(F)F)c2)CC1", "note": "[Compound I-24, 3-(2-aminoimidazo [1,2-b]pyridazin-6-yl)-N-(3-((4-ethylpiperazin-1-yl)methyl)-5-(trifluoromethyl)phenyl)-4-methylbenzamide]", "IC50": "> 3330"}, {"smiles": "CCOC(=O)N1CCN(Cc2cc(NC(=O)c3ccc(C)c(-c4ccc5nc(NC(=O)C6CC6)cn5n4)c3)cc(C(F)(F)F)c2)CC1", "note": "[Compound I-13, ethyl 4-(3-(3-(2-(cyclopropanecarboxamido)imidazo[1,2-b]pyridazin-6-yl)-4-methylbenzamido)-5-(trifluoromethyl)benzyl)piperazine-1-carboxylate]", "IC50": 3180}, {"smiles": "CCN1CCN(Cc2cc(NC(=O)c3cc(-c4ccc5nc(NC(=O)C6CC6)cn5n4)c(C)nc3O)cc(C(F)(F)F)c2)CC1", "note": "[Compound I-21, 5-(2-(cyclopropanecarboxamido)imidazo[1,2-b]pyridazin-6-yl)-N-(3-((4-ethylpiperazin-1-yl)methyl)-5-(trifluoromethyl)phenyl)-2-hydroxy-6-methylnicotinamide]", "IC50": "> 10000"}, {"smiles": "CCN1CCN(Cc2cc(NC(=O)c3ccc(C)c(-c4cn5cc(NC(=O)C6CC6)nc5cn4)c3)cc(C(F)(F)F)c2)CC1", "note": "[Compound I-4, 3-(2-(cyclopropanecarboxamido)imidazo[1,2-a]pyrazin-6-yl)-N-(3-((4-ethylpiperazin-1-yl)methyl)-5-(trifluoromethyl)phenyl)-4-methylbenzamide]", "IC50": 950}, {"smiles": "CCN1CCN(Cc2cc(NC(=O)c3cc(-c4ccc5nc(NC(=O)C6CC6)cn5n4)c(C)cc3C)cc(C(F)(F)F)c2)CC1", "note": "[Compound I-19, 5-(2-(cyclopropanecarboxamido)imidazo[1,2-b]pyridazin-6-yl)-N-(3-((4-ethylpiperazin-1-yl)methyl)-5-(trifluoromethyl)phenyl)-2,4-dimethylbenzamide]", "IC50": 8760}, {"smiles": "CCN1CCN(Cc2cc(NC(=O)c3ccc(C)c(-c4ccc5nc(NC(=O)C6CC6)nn5c4)c3)cc(C(F)(F)F)c2)CC1", "note": "[Compound I-1, 3-(2-(cyclopropanecarboxamido)-[1,2,4]triazolo[1,5-a]pyridin-6-yl)-N-(3-((4-ethylpiperazin-1-yl)methyl)-5-(trifluoromethyl)phenyl)-4-methylbenzamide]", "IC50": 508}, {"smiles": "CCN1CCN(Cc2ccc(NC(=O)c3ccc(C)c(-c4ccc5nc(NC(=O)C6CC6)cn5c4)c3)cc2C(F)(F)F)CC1", "note": "[Compound I-7, 3-(2-(cyclopropanecarboxamido)imidazo[1,2-a]pyridin-6-yl)-N-(4-((4-ethylpiperazin-1-yl)methyl)-3-(trifluoromethyl)phenyl)-4-methylbenzamide]", "IC50": 672}, {"smiles": "Cc1ccc(C(=O)Nc2cc(CN3CCNCC3)cc(C(F)(F)F)c2)cc1-c1ccc2nc(NC(=O)C3CC3)cn2n1", "note": "[Compound I-9, 3-(2-(cyclopropanecarboxamido)imidazo[1,2-b]pyridazin-6-yl)-4-methyl-N-(3-(piperazin-1-ylmethyl)-5-(trifluoromethyl)phenyl)benzamide]", "IC50": 301}, {"smiles": "CCN1CCN(Cc2cc(NC(=O)c3ccc(C)c(-c4ccc5c(c4)nc(NC(=O)C4CC4)n5C)c3)cc(C(F)(F)F)c2)CC1", "note": "[Compound I-26, 3-(2-(cyclopropanecarboxamido)-1-methyl-1H-benzo[d]imidazol-5-yl)-N-(3-((4-ethylpiperazin-1-yl)methyl)-5-(trifluoromethyl)phenyl)-4-methylbenzamide]", "IC50": "> 10000"}, {"smiles": "CCN1CCN(Cc2cc(NC(=O)c3cc(-c4ccc5nc(NC(=O)C6CC6)cn5n4)c(C)cn3)cc(C(F)(F)F)c2)CC1", "note": "[Compound I-18, 4-(2-(cyclopropanecarboxamido)imidazo[1,2-b]pyridazin-6-yl)-N-(3-((4-ethylpiperazin-1-yl)methyl)-5-(trifluoromethyl)phenyl)-5-methylpicolinamide]", "IC50": 985}, {"smiles": "CCN1CCN(Cc2cc(NC(=O)c3ccc(C)c(-c4ccc5nc(NC(=O)C6CC6)n(C)c5c4)c3)cc(C(F)(F)F)c2)CC1", "note": "[Compound I-25, 3-(2-(cyclopropanecarboxamido)-1-methyl-1H-benzo[d]imidazol-6-yl)-N-(3-((4-ethylpiperazin-1-yl)methyl)-5-(trifluoromethyl)phenyl)-4-methylbenzamide]", "IC50": 7020}, {"smiles": "CCN1CCN(Cc2cc(NC(=O)c3ccc(C)c(-c4ccn5nc(NC(=O)C6CC6)nc5c4)c3)cc(C(F)(F)F)c2)CC1", "note": "[Compound I-3, 3-(2-(cyclopropanecarboxamido)-[1,2,4]triazolo[1,5-a]pyridin-7-yl)-N-(3-((4-ethylpiperazin-1-yl)methyl)-5-(trifluoromethyl)phenyl)-4-methylbenzamide]", "IC50": 981}, {"smiles": "CCc1ccc(C(=O)Nc2cc(CN3CCN(CC)CC3)cc(C(F)(F)F)c2)cc1-c1ccc2nc(NC(=O)C3CC3)cn2n1", "note": "[Compound I-20, 3-(2-(cyclopropanecarboxamido)imidazo[1,2-b]pyridazin-6-yl)-4-ethyl-N-(3-((4-ethylpiperazin-1-yl)methyl)-5-(trifluoromethyl)phenyl)benzamide]", "IC50": 399}, {"smiles": "CCN1CCN(Cc2cc(NC(=O)c3ccc(C)c(-c4cnc5nc(NC(=O)C6CC6)cn5c4)c3)cc(C(F)(F)F)c2)CC1", "note": "[Compound I-5, 3-(2-(cyclopropanecarboxamido)imidazo[1,2-a]pyrimidin-6-yl)-N-(3-((4-ethylpiperazin-1-yl)methyl)-5-(trifluoromethyl)phenyl)-4-methylbenzamide]", "IC50": 9510}, {"smiles": "CCN1CCN(Cc2ccc(NC(=O)c3ccc(C)c(-c4ccc5nc(NC(=O)C6CC6)cn5n4)c3)cc2C(F)(F)F)CC1", "note": "[Compound I-15, 3-(2-(cyclopropanecarboxamido)imidazo[1,2-b]pyridazin-6-yl)-N-(4-((4-ethylpiperazin-1-yl)methyl)-3-(trifluoromethyl)phenyl)-4-methylbenzamide]", "IC50": 1100}, {"smiles": "CCN1CCN(Cc2cc(NC(=O)c3ccc(C#N)c(-c4ccc5nc(NC(=O)C6CC6)cn5n4)c3)cc(C(F)(F)F)c2)CC1", "note": "[Compound I-23, 4-cyano-3-(2-(cyclopropanecarboxamido)imidazo[1,2-b]pyridazin-6-yl)-N-(3-((4-ethylpiperazin-1-yl)methyl)-5-(trifluoromethyl)phenyl)benzamide]", "IC50": 5120}, {"smiles": "CCN1CCN(Cc2cc(NC(=O)c3cnc(C)c(-c4ccc5nc(NC(=O)C6CC6)cn5n4)c3)cc(C(F)(F)F)c2)CC1", "note": "[Compound I-16, 5-(2-(cyclopropanecarboxamido)imidazo[1,2-b]pyridazin-6-yl)-N-(3-((4-ethylpiperazin-1-yl)methyl)-5-(trifluoromethyl)phenyl)-6-methylnicotinamide]", "IC50": 486}, {"smiles": "Cc1ccc(C(=O)Nc2cc(CN3CCN(CC4CC4)CC3)cc(C(F)(F)F)c2)cc1-c1ccc2nc(NC(=O)C3CC3)cn2n1", "note": "[Compound I-14, 3-(2-(cyclopropanecarboxamido)imidazo[1,2-b]pyridazin-6-yl)-N-(3-((4-(cyclopropylmethyl)piperazin-1-yl)methyl)-5-(trifluoromethyl)phenyl)-4-methylbenzamide]", "IC50": 772}, {"smiles": "COCCN1CCN(Cc2cc(NC(=O)c3ccc(C)c(-c4ccc5nc(NC(=O)C6CC6)cn5n4)c3)cc(C(F)(F)F)c2)CC1", "note": "[Compound I-12, 3-(2-(cyclopropanecarboxamido)imidazo[1,2-b]pyridazin-6-yl)-N-(3-((4-(2-methoxyethyl)piperazin-1-yl)methyl)-5-(trifluoromethyl)phenyl)-4-methylbenzamide]", "IC50": 1820}, {"smiles": "CCN1CCN(Cc2cc(NC(=O)c3cc(-c4ccc5nc(NC(=O)C6CC6)cn5n4)c(C)cc3F)cc(C(F)(F)F)c2)CC1", "note": "[Compound I-17, 5-(2-(cyclopropanecarboxamido)imidazo[1,2-b]pyridazin-6-yl)-N-(3-((4-ethylpiperazin-1-yl)methyl)-5-(trifluoromethyl)phenyl)-2-fluoro-4-methylbenzamide]", "IC50": 934}, {"smiles": "CCN1CCN(Cc2cc(NC(=O)c3ccc(C)c(-c4ccc5[nH]c(NC(=O)C6CC6)nc5n4)c3)cc(C(F)(F)F)c2)CC1", "note": "[Compound I-27, 3-(2-(cyclopropanecarboxamido)-1H-imidazo[4,5-b]pyridin-5-yl)-N-(3-((4-ethylpiperazin-1-yl)methyl)-5-(trifluoromethyl)phenyl)-4-methylbenzamide]", "IC50": 1530}]}, {"tested_on": "cell lines or patient-derived xenografts from patients with CRLF2-rearranged B-ALL", "assay": "not given", "conditions": "cited from earlier work", "units": {"IC50": "µM"}, "values": [{"smiles": "N#CC[C@H](C1CCCC1)n1cc(-c2ncnc3[nH]ccc23)cn1", "note": "[Ruxolitinib]", "IC50": "> 20"}]}]}
